Key:
[1] = Viscosity responsiveness: fluorescence emission spectra of probes in glycerol and methanol; type: physicochemical; details: for Emission wavelength: excited at maximum excitation wavelength of each probe; for Fluorescence ratio in glycerol to methanol: probe 1×10^−5 M
How it was run: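 Each probe, from a 1×10^−2 M DMSO stock, was diluted to a final 1×10^−5 M in glycerol and in methanol. Fluorescence emission spectra were then recorded under identical conditions at each probe's maximum excitation wavelength.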

[2] = Fluorescence of free probe prior to binding to a protein tag; type: physicochemical
SNAP protein tags = molecular target: T1, SNAP protein tags (Homo sapiens, UniProt P16455, A127T/A154D/C150Q/C62A/E30R/G131K/G132T/G153L/K125A/K32I/L33F/M134L/N157G/Q115S/Q116H/R128A/R135S/S151G/S152D/S159E); experiment: Fluorescence activation of probe after incubation with corresponding protein tag (SNAP); type: biochemical; details: probe 5 μM, protein tag 10 μM, 37° C., 1 hr
T1 sequence (P16455 1-182 E30R/K32I/L33F/C62A/Q115S/Q116H/K125A/A127T/R128A/G131K/G132T/M134L/R135S/C150Q/S151G/S152D/G153L/A154D/N157G/S159E): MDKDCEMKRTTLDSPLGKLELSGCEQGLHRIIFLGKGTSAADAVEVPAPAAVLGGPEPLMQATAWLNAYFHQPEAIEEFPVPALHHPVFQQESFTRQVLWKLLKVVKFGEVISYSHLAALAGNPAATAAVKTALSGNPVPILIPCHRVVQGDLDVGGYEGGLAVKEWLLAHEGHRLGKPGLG
How it was run: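 Probe (5 μM final) mixed with CLIP or SNAP protein tag (10 μM final) and incubated 1 hr at 37° C. Fluorescence intensity change measured by fluorescence spectrophotometer, with quantum yield of tag-bound probe determined.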

[3] = system: HeLa cells with stable expression of protein tags; experiment: Labeling of HeLa cells expressing protein tags vs HeLa-WT cells, confocal imaging; type: cell-based; details: probe 5 μM, 37° C., 2 hrs
Experimental: HeLa cells with stable expression of protein tags and HeLa-WT cells (HeLa primitive cells, with no protein tag expressed) were implanted in a 14 mm glass-bottom 96-well cell culture plate and stabilized for 10 hrs. Probes 1, 15, 21, 30, 56, 60, 63, 88 were added to the media, respectively and diluted to 5 μMs. The cells were incubated in a carbon dioxide incubator at 37° C. for 2 hrs, and then a Leica TPS-8 confocal microscopy was used to image the fluorescent changes of the labeled cells. […] However, for HeLa cells with protein tags expressed shown by group A in FIG. 12, strong fluorescent signals could be detected, which are nearly 300 times stronger.

HeLa cells = experiment: Labeling of organelle-localized protein tags in HeLa cells without washing; type: cell-based; details: 0.2 μM probe, 2 hrs, no washing
Text: To verify that probes 1, 21, 48, 60, 66 and 77 can be used to label target proteins located by different organelles, HeLa cells were taken as an example to detect the effect of probes on labeling different subcellular proteins. HeLa cells were implanted 5000 cells per well in a 96-well glass-bottom cell culture plate. 14 hrs later, the cells were transfected with the plasmids encoding different organelle localized protein tags using Lipo2000; the original medium was removed 24 hrs after transfection, washed with a phenol-free red DMEM medium twice, and incubated with a phenol-free red medium containing 0.2 μM probes for 2 hrs, and then the cell labeling effects were detected by imaging with a leica TCS-8 confocal microscopy.

fusion protein CX43-SNAP = experiment: Tracing assembly of CX43-SNAP intercellular channels in HeLa cells; type: cell-based; details: probe 21 2 μM 1 hour first, then probe 1 1 μM
Text: To verify that the probe of the present invention can be used to monitor the assembly and degradation process of biological macromolecules in mammalian cells in real time, the process of tracing the assembly of intercellular protein CX43 to form intercellular channels in mammalian cells by the probe was detected by taking HeLa cells as an example. The C-terminal of CX43 gene was fused with SNAP gene, and HeLa cell line with stable expression of fusion protein CX43-SNAP was constructed and obtained by lentivirus infection technology. HeLa-CX43-SNAP cell lines were implanted in a 20 mm glass-bottom cell culture dish 10 hrs before the probe labeling. To conduct labeling, a phenol-free red DMEM medium was first used to dilute the probe 21 to 2 μM to replace the original cell culture medium. Cells were incubated in a carbon dioxide incubator at 37° C. for 1 hour. The cells were then washed twice using a fresh phenol-free red DMEM medium, with unbound probe 21 removed at 2-minute intervals. Then, DMEM phenol-free red culture medium containing 1 μM probe 1 was added to label cells. Leica SP8 confocal microscopy was used to monitor for a long time the fluorescence intensity and position changes of labeled cell samples at the corresponding fluorescence channels of probes 21 and 1, as shown in FIGS. 17A and 17B, respectively. […]

CLIP protein tags = experiment: Fluorescence activation of probe after incubation with corresponding protein tag (CLIP); type: biochemical; details: probe 5 μM, protein tag 10 μM, 37° C., 1 hr
Experimental: Probes were mixed with corresponding protein tags to obtain mixed samples, in which the final probe concentration was 5 μM, and the final protein tag concentration was 10 μM. The mixed samples were incubated 37° C. for 1 hr, fluorescence spectrophotometer was used to detect the change in fluorescence intensity, and the results are shown in Table 1.
From the quantum yield of probe bound to protein tag, after reacting with the protein tags, the probes of the Examples could be detected to have significant signal enhancement in corresponding excitation transmission channels, the fluorescence activation multiple reached several hundreds to a thousand or more, and the brightness was high, which illustrates that after the probes of the Examples are bound to the protein tags, fluorescence of the probes can be activated, and the probes have good fluorescent molecular switching properties. In contrast, though the fluorescence of the reference probes could also be activated, the quantum yield of activated fluorescence was very low, and the brightness was very poor. In particular, in view of comparison results between probe 98 and reference probe 99, probe 101 and reference probe 102, probe 103 and reference probe 104, probe 105 and reference probe 106, probe 107 and reference probe 108, probe 109 and reference probe 110, probe 111 and reference probe 112, probe 114 and reference probe 115, probe 117 and reference probe 118, probe 120 and reference probe 121 in Table 1, for the same fluorescent dye, when the ligand is connected to the electron donor part of the fluorescent dye, the fluorescence activation brightness of the probe is much higher than the reference probe in which ligand is connected to the electron acceptor part of the fluorescent dye.

SNAP protein tag [4] = molecular target: T2, SNAP protein tag (Homo sapiens, UniProt P16455, A127T/A154D/C150Q/C62A/E30R/G131K/G132T/G153L/K125A/K32I/L33F/M134L/N157G/Q115S/Q116H/R128A/R135S/S151G/S152D/S159E); experiment: In vivo labeling of SNAP protein tag expressed in mouse liver; details: mice, tail vein injection, 6 hrs after probe
T2 construct: expressed in transfected cells; host or cells: mouse liver after tail-vein plasmid injection
T2 sequence (P16455 1-182 E30R/K32I/L33F/C62A/Q115S/Q116H/K125A/A127T/R128A/G131K/G132T/M134L/R135S/C150Q/S151G/S152D/G153L/A154D/N157G/S159E): T1 sequence (P16455 1-182 E30R/K32I/L33F/C62A/Q115S/Q116H/K125A/A127T/R128A/G131K/G132T/M134L/R135S/C150Q/S151G/S152D/G153L/A154D/N157G/S159E)
Experimental: (§1) First, a SNAP protein tag expressing plasmid, pcdna3.1-SNAP (sample group), and a control plasmid without SNAP protein tag expressing, pcdna3.1-CAT (control group), were introduced into mice. This method dissolves plasmids in a large volume of solution and rapidly injects them into mice through tail vein injection. The mouse liver and kidneys absorb DNA and then express the target protein. 20 hrs after plasmid injection, 0.4 μM probe 88 dissolved in 200 μl PBS was injected into mice through tail vein injection to label the SNAP protein tag. 6 hrs later, the mice were dissected, and the fluorescence differences in the liver parts of different mouse samples were detected by KODAK multi-spectral in vivo imaging system. The liver fluorescence of the control plasmid pcdna3.1-CAT injected with probe 88 was very low, close to the background fluorescence level of the blank liver without the probe, while the liver of SNAP plasmid pcdna3.1-SNAP injected with probe 88 had strong fluorescence, and the signal intensity was more than 20 times higher than that of the control group.

SNAP protein tag [5] = experiment: as above; details: mice, tail vein injection, 6 hrs after probe
Experimental: as §1

Structure (SMILES)	Emission wavelength [1] [nm]	Fluorescence ratio in glycerol to methanol [1]	Quantum yield of free probe [2]	Fluorescence activation multiple (SNAP protein tags)	Quantum yield of probe bound to protein tag (SNAP protein tags)	Fluorescence signal in HeLa-WT cells (no protein tag expressed) [3]	Fluorescent signal in HeLa cells with protein tags expressed, relative to HeLa-WT [3] [times]	Labeling of subcellular organelle structures (HeLa cells)	Fluorescence signal at intercellular channels (fusion protein CX43-SNAP)	Fluorescence activation multiple (CLIP protein tags)	Quantum yield of probe bound to protein tag (CLIP protein tags)	Liver fluorescence signal intensity of pcdna3.1-SNAP group relative to control group (SNAP protein tag [4])	Liver fluorescence of control plasmid pcdna3.1-CAT group (SNAP protein tag [5])
CN(CCOC(=O)NCc1ccc(COc2nc(N)nc3[nH]cnc23)cc1)c1ccc(/C=C(\C#N)C(=O)OC(C)(C)C)cc1 [probe 1]	480	560	<0.001	360	0.35	no corresponding fluorescence signal was detected	~300	clearly display a variety of subcellular organelle structures without washing	appeared and gradually increased at the edge of intercellular channels	–	–	–	–
CN(CCOC(=O)NCc1ccc(COc2nc(N)nc3[nH]cnc23)cc1)c1ccc2cc(/C=C(\C#N)C(=O)OC(C)(C)C)sc2c1 [probe 30]	570	1125	<0.001	535	0.55	no corresponding fluorescence signal was detected	~300	–	–	–	–	–	–
CN(CCOC(=O)NCc1ccc(COc2nccc(N)n2)cc1)c1ccc2nc(/C=C(\C#N)c3nc4ccccc4s3)oc2c1 [probe 48]	625	180	<0.001	–	–	–	–	clearly display a variety of subcellular organelle structures without washing	–	428	0.16	–	–
CN(CCOC(=O)NCc1ccc(COc2nc(N)nc3[nH]cnc23)cc1)c1ccc(C#C/C=C(\C#N)C(=O)OC(C)(C)C)cc1 [probe 56]	566	436	<0.001	989	0.39	no corresponding fluorescence signal was detected	~300	–	–	–	–	–	–
CN(CCOC(=O)NCc1ccc(COc2nc(N)nc3[nH]cnc23)cc1)c1cc2sc3cc(/C=C(\C#N)C(=O)OC(C)(C)C)sc3c2s1 [probe 60]	620	1199	0.0011	751	0.81	no corresponding fluorescence signal was detected	~300	clearly display a variety of subcellular organelle structures without washing	–	–	–	–	–
CN(CCOC(=O)NCc1ccc(COc2nc(N)nc3[nH]cnc23)cc1)c1ccc2c(c1)sc1cc(/C=C(/C#N)C(=O)OC(C)(C)C)sc12 [probe 63]	620	531	0.0015	486	0.73	no corresponding fluorescence signal was detected	~300	–	–	–	–	–	–
CN(CCOC(=O)NCc1ccc(COc2nc(N)nc3[nH]cnc23)cc1)c1ccc(-c2ccc(/C=C(\C#N)C(=O)OC(C)(C)C)s2)cc1 [probe 66]	620	386	<0.001	512	0.37	–	–	clearly display a variety of subcellular organelle structures without washing	–	–	–	–	–
CN(CCOC(=O)NCc1ccc(COc2nc(N)nc3[nH]cnc23)cc1)c1ccc(-c2ccc(/C=C(\C#N)C(=O)OC(C)(C)C)s2)s1 [probe 77]	655	279	0.0014	268	0.38	–	–	clearly display a variety of subcellular organelle structures without washing	–	–	–	–	–
CC1=CC(C)(C)N(CCOC(=O)NCc2ccc(COc3nc(N)nc4[nH]cnc34)cc2)c2ccc(/C=C(\C#N)c3nc4ccccc4o3)cc21 [probe 88]	595	298	<0.001	621	0.29	no corresponding fluorescence signal was detected	~300	–	–	–	–	more than 20 times	very low
